How the values were obtained:
Type in all cases: cell-based, human
H929 cells = test: IncuCyte Zoom NK cell killing of H929
Text: FIGS. 8A-8D illustrate the ability of peripheral blood NK cells with or without B7-H3-TriKE to kill myeloma cells in live imaging IncuCyte Zoom assays. FIG. 8A is a graph showing the effects with effector:target (E:T) ratios of 2:1 and 4:1 on H929 cells. FIG. 8B is a graph showing the effects with effector:target (E:T) ratios of 2:1 and 4:1 on MM1S cells. FIG. 8C is a graph showing the effects with effector:target (E:T) ratios of 2:1 and 4:1 on RPMI-8226 cells. FIG. 8D is a graph showing the effects with effector:target (E:T) ratios of 2:1 and 4:1 on U266 cells.
FIGS. 9A-9D illustrate the efficacy of B7-H3-TriKE with the proteasome inhibitor bortezomib (10 nM) and the immunomodulatory drug lenalidomide (5 μM). FIG. 9A is a graph showing the effect of the combination therapy on H929 cells after 48 hours. FIG. 9B is a graph showing the effect of the combination therapy on RPMI-8226 cells after 48 hours. FIG. 9C is a graph showing the effect of the combination therapy on MM1S cells after 48 hours. FIG. 9D is a graph showing the effect of the combination therapy on U266 cells after 48 hours.
The ability of peripheral blood NK cells with or without B7-H3-TriKE to kill myeloma cells was compared in live imaging IncuCyte Zoom assays with escalating doses of TriKE. Maximal killing occurred with 3 nM concentration.
The efficacy of B7-H3-TriKE with the proteasome inhibitor bortezomib (10 nM) and the immunomodulatory drug lenalidomide (5 μM) was also tested. Cytotoxicity curves were compared by repeated measures ANOVA and performed in triplicate.

PC-3 cells = test: PC3 standard IncuCyte real-time killing assay; settings: IncuCyte platform
Protocol: FIG. 16 is a graph illustrating a PC3 standard IncuCyte Assay.
Tumor killing was evaluated in real-time using the IncuCyte platform. […] Caspase-3/7 green dye (Sartorious, Ann Arbor, MI, USA) was added to pick up dying cells that have not yet lost NuclightRed fluorescence. Noted treatments were then added at a 30 nM concentration, and the plate was placed in an IncuCyte ZOOM® platform housed inside a cell incubator at 37° C./5% C02. Images from three technical replicates were taken every 15 min for 48 h using a 4× objective lens and then analyzed using IncuCyte™ Basic Software v2018A (Sartorious). Graphed readouts represent percentage live OVCAR8 targets (NuclightRed+Caspase-3/7−), normalized to live targets alone at the starting (0 h) time point.

[1] = system: HNSCC cell lines (Cal27 trio, Cal33 trio); test: NK cell CD107a / IFN-γ flow cytometry against HNSCC lines
Protocol: FIGS. 27A-27D illustrate the functional validation of B7-H3 TriKE. FIG. 27A is a graph illustrating CD107a expression in PBMCs from healthy donors incubated with Cal27 trio. FIG. 27B is a graph illustrating intracellular IFN-γ production in PBMCs from healthy donors incubated with Cal27 trio. FIG. 27C is a graph illustrating CD107a expression in PBMCs from healthy donors incubated with Cal33 trio. FIG. 27D is a graph illustrating intracellular IFN-γ production in PBMCs from healthy donors incubated with Cal33 trio.
NK cell responses against HNSCC lines in the presence of the B7-H3 TriKE were assessed through either flow cytometry based functional assays, to evaluate NK cell degranulation and cytokine secretion, or IncuCyte imaging assays, to directly assess target killing. NK cell degranulation and IFN-gamma production of B7-H3 TriKE-treated samples were higher compared to that of control samples treated with B7-H3 single domain or IL-15 alone. […] Ongoing experiments will evaluate the functionality and efficacy of the B7-H3 TriKE in vivo.
Frozen PBMCs (N=3) from healthy donors were incubated for 5 hours with (A-B) Cal27 trio and […] Cal33 trio (each trio consisting of a HNSCC WT line and 2 clones of HNSCC FANCA KO lines) in different treatments: no treatment or 3 nM IL-15, MOPC, B7-H3 SD and B7-H3TriKE to evaluate CD107a expression (as a marker for degranulation) and intracellular IFN-γ production. Error bars indicate standard error of mean, and statistical significance was determined as *p<0.05, **p<0.01, ***p<0.001 and ****p<0.0001

[2] = vs B7-H3 single domain or IL-15 alone

## B7-H3 TriKE: camelid nanobodies targeting CD16 and B7-H3 joined by IL-15 and two linkers; sequence table equates the name with cam1615B7-H3
H929 cells; E:T 2:1
  NK cell killing of H929: more potently killed
H929 cells; E:T 4:1
  NK cell killing of H929: no difference in killing
PC-3 cells
  real-time tumor killing of PC-3 cells: enhanced efficacy
[1]; 3 nM, 5 hours, Cal27 trio and Cal33 trio, healthy donor PBMCs
  NK cell activity (CD107a, IFN-γ) against HNSCC: induced NK cell activity against HNSCC
[1]; [2]
  NK cell IFN-gamma production against HNSCC: higher
  NK cell degranulation against HNSCC: higher

Reference: US20250145715A1, “B7-H3 TARGETING FUSION PROTEINS AND METHODS OF USE THEREOF” (GT Biopharma, Inc., priority 2021, published 2025)
